# Experimental data published in patent publication EP3878441B1, “ALOE EMODIN AND ESTER DERIVATIVES THEREOF FOR TREATING SSTR2 AND/OR SSTR5 OVEREXPRESSING CANCERS” (Pecere, Teresa, priority 2020, dated 2021).
# Columns and labels:
# Sstr5 gene = experiment: Real-time PCR, sstr5 mRNA gene expression in IMR5 cells; type: cell-based, human; details: AE 50µM, SST14 10µM, 5,30,60,120 min (fig.1B)
# Method: (§1) Real-time PCR analyses were carried out to quantify expression of the selected sstrs genes in IMR5, DMS114, and MRC5 cells. Total RNA was isolated using the Qiagen RNeasy Mini Kit in accordance with the manufacturer's instructions. cDNA synthesis were performed using GeneAmp® RNA PCR Core Kit (Roche, New Jersey, U.S.A.). The expression levels of sstrs mRNA were evaluated by qualitative RT-PCR using the specific primers.
# (§2) Relative quantitative PCR (qPCR) was carried out in 25 µl final volume utilizing 3 µl of cDNA, 0.2 µM of each specific primers, using SYBRgreen reagents according to the manufacturer's instructions. PCR reactions comprised 40 cycles after an initial denaturation step (95°C, 10 min) according to the parameters: denaturation at 95°C, 15 sec and annealing/extension at 60°C, 1 min, in an ABI PRISM 7700 Sequence Detection system. To normalize the RNA amount of the extracted samples, real-time PCR analysis of the human GAPDH cDNA was carried out. Moreover, we optimized the method for relative quantification with sequence-specific DNA probes for sstr2 and sstr5 genes TaqMan reagents using kit TaqMan Gene Expression Assays according to the manufacturer's instructions (Applied Biosystem, Milan, Italy). The relative quantification of a target template in the samples was evaluated using the 2^-ΔΔCT method. All experiments were conducted in triplicate.
# sstr2 gene [1] = experiment: Real-time PCR, sstr2 mRNA gene expression in IMR5 cells; type: cell-based, human; details: SST14 10µM, 5,30,60,120 min (fig.1B)
# Method: as §1, §2
# sstr2 gene [2] = experiment: Real-time PCR, sstr2 mRNA gene expression in MRC5 cells; type: cell-based, human; details: AE 50µM, SST14 10µM, 5,30,60,120 min (fig.1B)
# Method: as §1, §2
# [3] = state of the art statement; cited from earlier work
substance,measurement,setting,value
SST14: somatostatin peptide containing 14 amino acids; natural ligand of somatostatin receptors,Sstr5 gene expression,Sstr5 gene,up-regulated
same,sstr2 gene expression,sstr2 gene [1],up-regulated
same,sstr2 gene expression,sstr2 gene [2],significantly upregulated
same,plasma half-life,[3],< 3 min
